# Reference: US8895733B2 (Novartis AG, priority 2010, dated 2014)
# Biological target: T1, Nav 1.7 (Homo sapiens, UniProt Q15858)
# T1 construct: expressed in transfected cells
# Test: Whole-cell voltage clamp electrophysiology, automated patch clamp (marker c in Table of Examples)
# Format: cell-based
# Conditions: marker c: Automated patch clamp data; read-out: Nav 1.7 activity
# In short: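 A voltage protocol weighted toward inactivated-state block was used to test compounds on stably expressing cells, with pulses from −65 mV holding to −10 mV test and −100 mV. Currents came from whole-cell automated patch-clamp recordings, either IonWorks Quattro or other automated instruments, usually in perforated-patch mode.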
# T1 sequence (Q15858 whole entry): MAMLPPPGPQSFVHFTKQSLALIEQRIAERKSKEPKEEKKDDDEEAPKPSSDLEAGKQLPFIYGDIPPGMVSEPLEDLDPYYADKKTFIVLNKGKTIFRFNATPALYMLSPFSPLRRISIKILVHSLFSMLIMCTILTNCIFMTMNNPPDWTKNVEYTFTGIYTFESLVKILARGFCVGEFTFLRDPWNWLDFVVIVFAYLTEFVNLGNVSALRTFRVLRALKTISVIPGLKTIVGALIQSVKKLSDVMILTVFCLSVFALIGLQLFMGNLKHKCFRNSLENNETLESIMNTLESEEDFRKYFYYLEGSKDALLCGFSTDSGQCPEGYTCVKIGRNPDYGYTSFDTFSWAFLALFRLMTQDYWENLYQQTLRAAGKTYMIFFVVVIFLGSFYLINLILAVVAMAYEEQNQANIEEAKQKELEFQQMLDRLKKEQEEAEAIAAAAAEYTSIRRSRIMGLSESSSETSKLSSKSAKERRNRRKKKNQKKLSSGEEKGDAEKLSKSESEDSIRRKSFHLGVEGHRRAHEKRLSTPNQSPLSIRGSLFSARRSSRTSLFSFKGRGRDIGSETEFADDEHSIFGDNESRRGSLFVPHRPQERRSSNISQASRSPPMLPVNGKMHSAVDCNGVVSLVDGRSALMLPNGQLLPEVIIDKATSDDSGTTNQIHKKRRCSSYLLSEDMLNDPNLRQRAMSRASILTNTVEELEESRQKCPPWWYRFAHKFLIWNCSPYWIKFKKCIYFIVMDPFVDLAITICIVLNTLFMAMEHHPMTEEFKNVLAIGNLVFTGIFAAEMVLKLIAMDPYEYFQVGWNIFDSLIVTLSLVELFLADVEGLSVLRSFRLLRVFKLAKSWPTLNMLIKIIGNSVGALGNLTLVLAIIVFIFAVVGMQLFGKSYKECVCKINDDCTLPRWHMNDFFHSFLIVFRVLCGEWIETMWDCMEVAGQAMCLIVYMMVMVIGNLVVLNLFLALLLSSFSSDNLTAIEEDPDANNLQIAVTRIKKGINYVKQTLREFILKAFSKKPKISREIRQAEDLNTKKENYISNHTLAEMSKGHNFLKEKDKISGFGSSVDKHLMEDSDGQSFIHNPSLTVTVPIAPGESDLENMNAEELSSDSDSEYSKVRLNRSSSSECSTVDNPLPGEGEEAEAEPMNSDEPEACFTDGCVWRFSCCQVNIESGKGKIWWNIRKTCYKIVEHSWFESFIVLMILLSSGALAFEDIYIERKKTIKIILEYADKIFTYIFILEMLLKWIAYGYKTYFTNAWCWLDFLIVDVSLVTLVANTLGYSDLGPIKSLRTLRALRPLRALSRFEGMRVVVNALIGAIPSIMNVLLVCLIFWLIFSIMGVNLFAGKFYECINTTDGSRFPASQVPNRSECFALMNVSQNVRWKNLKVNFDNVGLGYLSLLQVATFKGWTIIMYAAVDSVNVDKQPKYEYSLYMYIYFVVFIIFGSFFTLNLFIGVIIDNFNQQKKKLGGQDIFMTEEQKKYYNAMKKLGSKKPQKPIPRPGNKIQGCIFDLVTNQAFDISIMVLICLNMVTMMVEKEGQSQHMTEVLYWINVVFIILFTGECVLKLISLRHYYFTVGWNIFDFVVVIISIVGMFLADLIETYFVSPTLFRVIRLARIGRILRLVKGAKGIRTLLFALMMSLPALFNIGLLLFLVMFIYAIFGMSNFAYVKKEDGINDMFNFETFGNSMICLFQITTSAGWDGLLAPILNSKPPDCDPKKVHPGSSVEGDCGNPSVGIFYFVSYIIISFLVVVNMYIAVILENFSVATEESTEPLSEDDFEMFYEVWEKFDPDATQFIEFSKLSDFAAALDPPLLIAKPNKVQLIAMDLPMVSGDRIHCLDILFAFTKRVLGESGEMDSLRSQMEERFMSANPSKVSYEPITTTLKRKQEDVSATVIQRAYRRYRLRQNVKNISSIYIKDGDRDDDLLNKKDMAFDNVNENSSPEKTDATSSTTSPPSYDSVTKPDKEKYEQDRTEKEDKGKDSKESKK
row,IC50 [nM],Compound
1,225,"Nc1nc(-c2noc(-c3ccco3)n2)nc(N(CC(F)(F)F)c2ccccc2)n1 [Example 68, 6-(5-Furan-2-yl-[1,2,4]oxadiazol-3-yl)-N-phenyl-N-(2,2,2-trifluoro-ethyl)-[1,3,5]triazine-2,4-diamine]"
2,118,"COc1ccccc1-c1nc(-c2nc(N)nc(N(C)c3cccc(Cl)c3)n2)no1 [Example 100, N-(3-Chloro-phenyl)-6-[5-(2-methoxy-phenyl)-[1,2,4]oxadiazol-3-yl]-N-methyl-[1,3,5]triazine-2,4-diamine]"
3,294,"COc1ccc(-c2nc(-c3nc(N)nc(N(C)c4ccccc4)n3)no2)nc1 [Example 118, 6-[5-(5-Methoxy-pyridin-2-yl)-[1,2,4]oxadiazol-3-yl]-N-methyl-N-phenyl-[1,3,5]triazine-2,4-diamine]"

# Biological target: T2, Nav1.5 (Homo sapiens, UniProt Q14524)
# T2 construct: expressed in transfected cells
# Test: Inhibition of Nav1.5 as measured using manual patch clamp
# Format: cell-based
# Conditions: not given
# Excerpt: (§1) Patch-clamp electrophysiology is considered the gold standard technique for investigation of ion channel function and pharmacology. Using this method, sodium channel currents can be measured in cells, which stably (or transiently) express the sodium channel subtype of interest. Application of compounds during such experiments provides a functional measure of the activity and potency of compounds affecting the ion channel of interest.
# (§2) Electrophysiological studies can also be performed using the whole cell configuration of the standard manual patch clamp technique as described in the literature (e.g. Pflugers Arch., 1981, 391(2), 85-100). In this assay, cells that express the voltage-gated sodium channel protein of interest are exposed to the drugs by conventional microperfusion systems, or by a home-built perfusion system. A suitable voltage stimulus protocol is used to activate the voltage-gated sodium channels.
# (§3) A suitable voltage stimulus protocol is used to activate voltage-gated sodium channel proteins of interest. A typical stimulus protocol may consist of sweeps of sequential voltage pulses starting from a holding potential (i.e. −65 mV), to a more positive and depolarising test pulse potential (i.e. −10 mV) and finally to a more negative and hyperpolarising potential (i.e. −100 mV). According to the biophysics of the voltage-gated ion channel of interest and interest in channel configuration the voltages and durations of the pulses as well as the overall frequency of sweeps applied might vary. Accordingly, a stimulus protocol was designed to assess compounds due to their potential to block NaV1.7 channels primarily in inactivated state. Selectivity over other voltage-gated sodium channel members was assessed by protocols that reflect the native function of the channels (i.e. heart rate or firing of neurons).
# (§4) Electrophysiological studies can also be performed using the whole cell configuration of the standard manual patch clamp technique as described in the literature (e.g. Pflugers Arch., 1981, 391(2), 85-100). In this assay, cells that express the human voltage-gated sodium channel protein of interest are exposed to the drugs by conventional microperfusion systems, or by a home-built perfusion system. A suitable voltage stimulus protocol is used to activate the voltage-gated sodium channels. A suitable voltage stimulus protocol may consist of sequential voltage pulses from a holding potential, each first hyperpolarizing the cell, then depolarizing the channels for a brief period. A particularly suitable holding potential may be a voltage allowing a fraction of channels to remain in an inactivated state, like −60 mV. A suitable hyperpolarizing voltage and duration may be −120 mV for 100 ms, and depolarization voltage and duration may be −20 mV for 25 ms, and a suitable frequency of pulses may be 0.1 Hz, but may also have other parameters. Accordingly, a stimulus protocol was designed to assess compounds due to their potential to block NaV1.7 channels primarily in inactivated state. Selectivity over other voltage-gated sodium channel members was assessed by protocols that reflect the native function of the channels (i.e. heart rate or firing of neurons).
# Inhibition of Nav1.5 by Compounds of formula (I) as measured using manual patch clamp
# T2 sequence (Q14524 whole entry): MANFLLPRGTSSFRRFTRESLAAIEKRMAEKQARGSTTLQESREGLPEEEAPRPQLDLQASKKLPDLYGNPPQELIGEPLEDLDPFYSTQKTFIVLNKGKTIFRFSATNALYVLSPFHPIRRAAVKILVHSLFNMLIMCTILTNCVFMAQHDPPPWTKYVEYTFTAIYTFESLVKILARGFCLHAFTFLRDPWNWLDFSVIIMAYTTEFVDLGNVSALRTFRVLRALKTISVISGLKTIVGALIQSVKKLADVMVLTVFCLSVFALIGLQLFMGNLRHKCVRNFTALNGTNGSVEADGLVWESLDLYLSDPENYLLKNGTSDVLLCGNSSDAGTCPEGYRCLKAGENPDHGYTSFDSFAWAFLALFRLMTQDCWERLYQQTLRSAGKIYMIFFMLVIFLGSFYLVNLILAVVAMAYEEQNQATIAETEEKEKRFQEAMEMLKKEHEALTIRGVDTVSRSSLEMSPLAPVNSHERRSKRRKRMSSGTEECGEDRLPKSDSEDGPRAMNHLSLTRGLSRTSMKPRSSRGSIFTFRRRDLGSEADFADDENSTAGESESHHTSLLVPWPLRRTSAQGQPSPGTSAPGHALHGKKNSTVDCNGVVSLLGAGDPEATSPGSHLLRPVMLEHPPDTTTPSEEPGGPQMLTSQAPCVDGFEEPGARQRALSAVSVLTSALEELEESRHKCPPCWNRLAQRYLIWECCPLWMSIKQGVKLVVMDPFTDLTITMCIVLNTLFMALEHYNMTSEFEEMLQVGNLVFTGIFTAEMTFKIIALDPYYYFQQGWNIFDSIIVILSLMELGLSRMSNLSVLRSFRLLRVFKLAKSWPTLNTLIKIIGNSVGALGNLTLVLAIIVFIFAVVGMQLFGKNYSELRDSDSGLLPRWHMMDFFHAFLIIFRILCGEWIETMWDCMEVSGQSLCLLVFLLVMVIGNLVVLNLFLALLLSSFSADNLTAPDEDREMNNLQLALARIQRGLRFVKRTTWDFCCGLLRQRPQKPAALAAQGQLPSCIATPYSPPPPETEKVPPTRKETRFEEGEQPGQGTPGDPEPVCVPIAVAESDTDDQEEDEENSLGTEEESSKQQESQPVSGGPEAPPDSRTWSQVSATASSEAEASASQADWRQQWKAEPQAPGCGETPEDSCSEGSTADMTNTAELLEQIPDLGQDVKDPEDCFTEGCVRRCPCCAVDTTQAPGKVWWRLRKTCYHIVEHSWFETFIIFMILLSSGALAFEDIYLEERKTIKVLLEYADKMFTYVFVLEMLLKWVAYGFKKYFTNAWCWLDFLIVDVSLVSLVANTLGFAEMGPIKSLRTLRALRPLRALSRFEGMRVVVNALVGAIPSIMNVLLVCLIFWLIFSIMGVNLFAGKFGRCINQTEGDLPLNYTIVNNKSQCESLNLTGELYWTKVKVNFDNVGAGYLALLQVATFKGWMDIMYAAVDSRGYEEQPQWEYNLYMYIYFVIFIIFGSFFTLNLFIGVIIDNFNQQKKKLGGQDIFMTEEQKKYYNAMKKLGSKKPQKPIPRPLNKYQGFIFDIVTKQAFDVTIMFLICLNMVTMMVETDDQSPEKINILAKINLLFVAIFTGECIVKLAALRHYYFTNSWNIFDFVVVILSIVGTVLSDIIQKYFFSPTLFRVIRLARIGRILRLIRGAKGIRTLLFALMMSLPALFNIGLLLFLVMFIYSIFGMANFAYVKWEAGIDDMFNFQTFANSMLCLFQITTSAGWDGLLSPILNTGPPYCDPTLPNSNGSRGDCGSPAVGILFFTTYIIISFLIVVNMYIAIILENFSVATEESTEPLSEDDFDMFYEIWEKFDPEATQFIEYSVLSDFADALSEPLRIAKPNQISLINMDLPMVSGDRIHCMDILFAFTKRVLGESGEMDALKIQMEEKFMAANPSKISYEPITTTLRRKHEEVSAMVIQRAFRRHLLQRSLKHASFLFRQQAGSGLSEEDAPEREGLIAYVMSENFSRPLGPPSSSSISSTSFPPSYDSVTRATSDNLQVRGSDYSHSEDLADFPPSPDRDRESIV
row,Compound,IC50 [nM]
1,"Nc1nc(-c2noc(-c3ccco3)n2)nc(N(CC(F)(F)F)c2ccccc2)n1 [Example 68, 6-(5-Furan-2-yl-[1,2,4]oxadiazol-3-yl)-N-phenyl-N-(2,2,2-trifluoro-ethyl)-[1,3,5]triazine-2,4-diamine]",> 10000
2,"COc1ccccc1-c1nc(-c2nc(N)nc(N(C)c3cccc(Cl)c3)n2)no1 [Example 100, N-(3-Chloro-phenyl)-6-[5-(2-methoxy-phenyl)-[1,2,4]oxadiazol-3-yl]-N-methyl-[1,3,5]triazine-2,4-diamine]",126
3,"COc1ccc(-c2nc(-c3nc(N)nc(N(C)c4ccccc4)n3)no2)nc1 [Example 118, 6-[5-(5-Methoxy-pyridin-2-yl)-[1,2,4]oxadiazol-3-yl]-N-methyl-N-phenyl-[1,3,5]triazine-2,4-diamine]",3340

# Biological target: T1, Nav 1.7
# Test: Whole-cell voltage clamp electrophysiology, manual patch clamp (marker b in Table of Examples)
# Format: cell-based
# Conditions: marker b = Manual patch clamp data; read-out: Nav 1.7 activity
# Excerpt: a.IonWork Quattro data, b=Manual patch clamp data, c=Automated patch clamp data M=Method
# Whole-Cell Voltage Clamp Electrophysiology Assay
# as §1, §2, §3, §4
row,IC50 [nM],Compound
1,97,"CN(c1ccccc1)c1nc(N)nc(-c2noc(C3CCN(Cc4ccccc4)C3)n2)n1 (stereo not drawn) [Example 207, 6-[5-(1-benzylpyrrolidin-3-yl)-1,2,4-oxadiazol-3-yl]-2-N-methyl-2-N-phenyl-1,3,5-triazine-2,4-diamine]"
2,283,"CN(c1ccccc1)c1nc(N)nc(-c2noc(N3CCC(COCC4CC4)CC3)n2)n1 [Example 216, 6-(5-{4-[(Cyclopropylmethoxy)methyl]piperidin-1-yl}-1,2,4-oxadiazol-3-yl)-2-N-methyl-2-N-phenyl-1,3,5-triazine-2,4-diamine]"
3,761,"COC1CCN(c2nc(-c3nc(N)nc(Nc4ccccc4)n3)no2)CC1 [Example 238, 6-[5-(4-methoxypiperidin-1-yl)-1,2,4-oxadiazol-3-yl]-2-N-phenyl-1,3,5-triazine-2,4-diamine]"
4,815,"CN(c1ccccc1)c1nc(N)nc(-c2noc(-c3ccn(CC(F)(F)F)n3)n2)n1 [Example 256, 2-N-Methyl-2-N-phenyl-6-{5-[1-(2,2,2-trifluoroethyl)-1H-pyrazol-3-yl]-1,2,4-oxadiazol-3-yl}-1,3,5-triazine-2,4-diamine]"
5,400,"CN(c1ccccc1)c1nc(N)nc(-c2noc(C(=O)N3CCC(OCC(F)(F)F)CC3)n2)n1 [Example 262, 2-N-methyl-2-N-phenyl-6-(5-{[4-(2,2,2-trifluoroethoxy)piperidin-1-yl]carbonyl}-1,2,4-oxadiazol-3-yl)-1,3,5-triazine-2,4-diamine]"
6,945,"Cc1cccc(-c2nc(-c3nc(N)nc(N(C)c4ccccc4)n3)no2)n1 [Example 271, 2-N-methyl-6-[5-(6-methylpyridin-2-yl)-1,2,4-oxadiazol-3-yl]-2-N-phenyl-1,3,5-triazine-2,4-diamine]"
7,1060,"CN(c1ccccc1)c1nc(N)nc(-c2noc(-c3ncccn3)n2)n1 [Example 278, 2-N-methyl-2-N-phenyl-6-[5-(pyrimidin-2-yl)-1,2,4-oxadiazol-3-yl]-1,3,5-triazine-2,4-diamine]"
8,308,"COc1cnc(-c2nc(-c3nc(N)nc(N(C)c4ccccc4)n3)no2)c(OC)c1 [Example 282, 6-[5-(3,5-Dimethoxypyridin-2-yl)-1,2,4-oxadiazol-3-yl]-2-N-methyl-2-N-phenyl-1,3,5-triazine-2,4-diamine]"
9,24,"Nc1nc(Nc2ccccc2)nc(-c2noc(-c3ccc(COCC(F)(F)F)nc3)n2)n1 [Example 303, 2-N-phenyl-6-(5-{6-[(2,2,2-trifluoroethoxy)methyl]pyridin-3-yl}-1,2,4-oxadiazol-3-yl)-1,3,5-triazine-2,4-diamine]"
10,276,"CN(c1ccccc1)c1nc(N)nc(-c2noc(-c3ccc([S+]([O-])CC(F)(F)F)nc3)n2)n1 (stereo not drawn) [Example 320, 2-N-methyl-2-N-phenyl-6-(5-{6-[(2,2,2-trifluoroethane)sulfinyl]pyridin-3-yl}-1,2,4-oxadiazol-3-yl)-1,3,5-triazine-2,4-diamine]"
11,701,"CN(c1ccccc1)c1nc(N)nc(-c2noc(N3CCC(OCC(F)(F)F)CC3)n2)n1 [Example 335, 2-N-methyl-2-N-phenyl-6-{5-[4-(2,2,2-trifluoroethoxy)piperidin-1-yl]-1,2,4-oxadiazol-3-yl}-1,3,5-triazine-2,4-diamine]"
12,1490,"Cc1csc(-c2nc(-c3nc(N)nc(N(C)c4ccccc4)n3)no2)n1 [Example 341, 2-N-methyl-6-[5-(4-methyl-1,3-thiazol-2-yl)-1,2,4-oxadiazol-3-yl]-2-N-phenyl-1,3,5-triazine-2,4-diamine]"
13,337,"Nc1nc(Nc2ccccc2)nc(-c2noc(-c3ncccc3F)n2)n1 [Example 346, 6-[5-(3-Fluoropyridin-2-yl)-1,2,4-oxadiazol-3-yl]-2-N-phenyl-1,3,5-triazine-2,4-diamine]"
14,17,"CN(c1nc(N)nc(-c2noc(-c3ccc(OCC(F)(F)F)nc3)n2)n1)c1cccc(F)c1F [Example 411, 2-N-(2,3-difluorophenyl)-2-N-methyl-6-{5-[6-(2,2,2-trifluoroethoxy)pyridin-3-yl]-1,2,4-oxadiazol-3-yl}-1,3,5-triazine-2,4-diamine]"
15,900,"CN(c1ccccc1)c1nc(N)nc(-c2noc(-c3ccnc(OCC(F)(F)F)c3)n2)n1 [Example 472, 2-N-methyl-2-N-phenyl-6-{5-[2-(2,2,2-trifluoroethoxy)pyridin-4-yl]-1,2,4-oxadiazol-3-yl}-1,3,5-triazine-2,4-diamine]"
16,172,"CN(c1ccccc1)c1nc(N)nc(-c2noc(-c3cccnc3OCC(F)(F)F)n2)n1 [Example 477, 2-N-methyl-2-N-phenyl-6-{5-[2-(2,2,2-trifluoroethoxy)pyridin-3-yl]-1,2,4-oxadiazol-3-yl}-1,3,5-triazine-2,4-diamine]"
17,127,"CN(c1ccccc1)c1nc(N)nc(-c2noc(N3CC(Oc4ccccc4)C3)n2)n1 [Example 489, 2-N-methyl-6-[5-(3-phenoxyazetidin-1-yl)-1,2,4-oxadiazol-3-yl]-2-N-phenyl-1,3,5-triazine-2,4-diamine]"

# Same assay, conditions: marker b: Manual patch clamp data; read-out: Nav 1.7 activity
row,IC50 [nM],Compound
1,118,"Nc1nc(Nc2cccc(F)c2F)nc(-c2noc(-c3ccco3)n2)n1 [Example 113, N-(2,3-Difluoro-phenyl)-6-(5-furan-2-yl-[1,2,4]oxadiazol-3-yl)-[1,3,5]triazine-2,4-diamine]"
2,42,"Nc1nc(Nc2cccc(F)c2)nc(-c2noc(-c3ccco3)n2)n1 [Example 117, N-(3-Fluorophenyl)-6-(5-furan-2-yl-[1,2,4]oxadiazol-3-yl)-[1,3,5]triazine-2,4-diamine]"
3,400,"COCCN(c1ccccc1)c1nc(N)nc(-c2noc(-c3ccco3)n2)n1 [Example 119, 6-(5-Furan-2-yl-[1,2,4]oxadiazol-3-yl)-N-(2-methoxy-ethyl)-N-phenyl-[1,3,5]triazine-2,4-diamine]"
4,635,"CN(c1ccccc1)c1nc(N)nc(-c2noc(-c3ccc(OC(F)(F)F)nc3)n2)n1 [Example 133, 2-N-methyl-2-N-phenyl-6-{5-[6-(trifluoromethoxy)pyridin-3-yl]-1,2,4-oxadiazol-3-yl}-1,3,5-triazine-2,4-diamine]"
5,44,"CN(c1cccc(F)c1)c1nc(N)nc(-c2noc(-c3ccc(OCC4CC4)nc3)n2)n1 [Example 135, 6-{5-[6-(cyclopropylmethoxy)pyridin-3-yl]-1,2,4-oxadiazol-3-yl}-2-N-(3-fluorophenyl)-2-N-methyl-1,3,5-triazine-2,4-diamine]"
6,65,"COCCN(c1ccccc1)c1nc(N)nc(-c2noc(-c3ccc(OCC(F)(F)F)nc3)n2)n1 [Example 156, 2-N-(2-Methoxyethyl)-2-N-phenyl-6-{5-[6-(2,2,2-trifluoroethoxy)pyridin-3-yl]-1,2,4-oxadiazol-3-yl}-1,3,5-triazine-2,4-diamine]"
7,235,"CN(c1ccccc1)c1nc(N)nc(-c2noc(N3CCC(COCC(F)(F)F)CC3)n2)n1 [Example 167, 2-N-Methyl-2-N-phenyl-6-(5-{4-[(2,2,2-trifluoroethoxy)methyl]piperidin-1-yl}-1,2,4-oxadiazol-3-yl)-1,3,5-triazine-2,4-diamine]"
